From patent US20120225119A1, “THERAPEUTIC COMBINATION FOR PAINFUL MEDICAL CONDITIONS” (UCB Pharma GmbH, priority 2005, published 2012) come the findings set out here.

For assay [1], the system named is formalin-induced flinching and licking of the affected paw. As to the kind of experiment: Rat formalin paw test (late phase). The class given is in vivo. As to conditions: for effect on time spent licking: lacosamide 10 mg/kg i.p. The procedure:
Rats were given an intraplantar injection of 5% formalin (50 μl) into the posterior left paw. This treatment induces a recognizable flinching and licking response of the affected paw in control animals. The number of flinches was counted for 15 minutes, beginning 20 minutes after injection of formalin. The time spent licking the affected paw was also recorded.
Male Rj: Wistar (Han) rats, 10 per group, weighing 100-130 g at the beginning of the experiments were studied per group. The test was performed blind. […]
Lacosamide (10 and 20 mg/kg), memantine (4 and 8 mg/kg), combinations of lacosamide (10 and 20 mg/kg) with memantine (4 and 8 mg/kg), and vehicle were administered i.p. 10 minutes before injection of formalin.
Lacosamide (10 and 20 mg/kg), naproxen (8 and 16 mg/kg), combinations of lacosamide (10 and 20 mg/kg) with […] (8 and 16 mg/kg), and vehicle were administered i.p. 10 minutes before injection of formalin. Morphine (8 mg/kg) was included as a comparative treatment.

Assay [2] has as its system monosodium iodoacetate-induced tactile allodynia. Kind of assay: Tactile allodynia (von Frey filaments) in iodoacetate rat model of osteoarthritis. The format is in vivo. The conditions noted are these: day 3 and day 7.
For assay [3], the system named is monosodium iodoacetate-induced mechanical hyperalgesia. As to the kind of experiment: Mechanical hyperalgesia (Randall-Selitto paw pressure) in iodoacetate rat model of osteoarthritis. The format is in vivo. As to conditions: for paw pressure withdrawal threshold compared to iodoacetate/vehicle treated animals: day 3.
In assay [4] the test system is muscle pressure hyperalgesia induced by TNF. Kind of assay: Withdrawal threshold to muscle pressure (Randall-Selitto) after TNF injection into gastrocnemius muscle. The class given is in vivo, rat. The conditions noted are these: for full reversal of the muscle hyperalgesia: pregabalin 30 and 100 mg/kg. The method, then: (§1) Adult male Sprague Dawley rats with a body weight of 250 g to 300 g were used (supplier: Charles River, Sulzfeld, Germany). Animals were group-housed (3 animals per cage) and maintained in a room with controlled temperature (21-22° C.) and a reversed light-dark cycle (12 h/12 h) with food and water available ad libitum. All experiments were approved by the Bavarian State animal experimentation committee and carried out in accordance with its regulations.
(§2) Recombinant rat tumor necrosis factor alpha (herein referred to as TNF) was obtained from R&D Systems, Minneapolis, Minn., U.S.A. TNF was diluted in 0.9% NaCl and used in a concentration of 1 μg in 50 μl. Injections were performed in short halothane narcosis with a 30 g needle bilaterally into the gastrocnemius or into the biceps brachii muscle. All rats were used to the behavioral tests before injections and baseline values were recorded over three test days.
Mechanical withdrawal thresholds to muscle pressure were measured with an analgesimeter (Ugo Basile, Comerio, Italy). The rat was allowed to crawl into a sock which helps the rat to relax. The hind limbs were positioned such that an increasing pressure could be applied onto the gastrocnemius muscle (maximum 250 g). The pressure needed to elicit withdrawal was recorded. Means of 3 trials for each hind limb were calculated (interstimulus interval of >30 sec). Only animals with a significant TNF effect were included for further analysis.
Rats were injected with TNF into the gastrocnemius muscle at 2 pm. Eighteen hours later, rats were tested for pressure hyperalgesia pre- and post-administration of the test drug. Rats were tested for pressure hyperalgesia 30 to 60 minutes after drug administration.
(§3) The rats, initially 10 per group, were treated with either 3, 10 or 30 mg/kg lacosamide, 2 mg/kg metamizol, 30 or 100 mg/kg pregabalin, 100 mg/kg gabapentin, or the NaCl vehicle, i.p. (intraperitoneally). Volume of i.p. injections was 0.5 ml. A pilot study was performed to confirm that i.m. (intramuscular) injection of 1 μg TNF into the gastrocnemius muscle was sufficient to induce pressure hyperalgesia.
(§4) Data are shown in graphs displaying means and standard errors of the means (SEM). Pre- and post-treatment data were compared using ANOVA (analysis of variance) and a Tukey post hoc test. Means of treatment groups were compared using a one-way ANOVA and Dunnett's post hoc test. Maximal possible effects (MPE) were calculated for all types of treatment.

The test system of assay [5] is TNF-induced reduction of grip strength. Kind of assay: Biceps muscle grip strength after TNF-induced muscle pain. The format is in vivo, rat. The method, then: as §1, §2
Grip strength of the forelimbs was tested with a digital grip force meter (DFIS series, Chatillon, Greensboro, N.C., U.S.A.). The rat was positioned to grab the grid with the forelimbs and was gently pulled so that the grip strength could be recorded. Means of three trials were calculated. The effect of the TNF treatment was calculated for each animal separately and only animals with a significant TNF effect were included for further analysis.
Rats were injected with TNF into the biceps brachii muscle at 8 am. Six hours later, grip strength of the forelimbs was tested with a digital grip force meter. Test drug was administered, and grip strength was again tested after 30 to 60 minutes.
as §3, §4

Setting [6] is: lacosamide 10 and 30 mg/kg i.p.
The mark [7] stands for this setting: pregabalin 30 and 100 mg/kg i.p.

Molecules are shown by their SMILES. Entries after “also recorded” stand apart in the source; their conditions may differ.

In the case of `CN1CC[C@]23c4c5ccc(O)c4O[C@H]2[C@@H](O)C=C[C@H]3[C@H]1C5` [Morphine], in assay [1] (Example 4, morphine 2 and 4 mg/kg i.p., effects did not reach statistical significance), the “effect on number of flinches and time spent licking as compared with vehicle controls” value is “dose-dependently decreased”. Further, the “effect on flinching and time spent licking as compared with vehicle controls” value in assay [1] (Example 7, morphine 8 mg/kg i.p.) was “eliminated flinching and the time spent licking”. The “tactile allodynia of iodoacetate-treated rats” value in assay [2] (morphine 3 mg/kg s.c.) is reported as “improved”. The “paw pressure withdrawal threshold compared to iodoacetate/vehicle treated animals” value in assay [3] (morphine 3 mg/kg s.c.) is “increase in paw pressure withdrawal threshold”. The mechanical hyperalgesia entry in assay [3] (morphine 3 mg/kg s.c., day 7) is “reduced mechanical hyperalgesia”.
Consider `COc1ccc2cc([C@H](C)C(=O)O)ccc2c1` [Naproxen], for which the “effect on number of flinches or time spent licking as compared with vehicle controls” value in assay [1] (Example 7, naproxen 8 and 16 mg/kg i.p.) is recorded as “did not clearly affect”.
Take `O=C(O)Cc1ccccc1Nc1c(Cl)cccc1Cl` [diclofenac]: the “paw pressure withdrawal threshold compared to iodoacetate/vehicle treated animals” value in assay [3] (diclofenac 30 mg/kg s.c.) is recorded as “increase in paw pressure withdrawal threshold”. In addition, in assay [3] (diclofenac 30 mg/kg s.c., day 7), the mechanical hyperalgesia result is reported as “reduced mechanical hyperalgesia”.
In the case of `COC[C@@H](NC(C)=O)C(=O)NCc1ccccc1` [Lacosamide, (R)-2-acetamido-N-benzyl-3-methoxypropionamide], the “reversal of muscular mechanical hyperalgesia (withdrawal threshold to muscle pressure)” value in assay [4] (lacosamide 30 mg/kg i.p., 30 to 60 minutes after drug) was “complete reversal; also recorded: full reversal”. Besides, in assay [4] (lacosamide 3, 10 and 30 mg/kg i.p.), the “muscle hyperalgesia induced by TNF injection in the paw pressure test” value is recorded as “dose-dependently improved”. The “MPE (maximal possible effect) on muscle pressure hyperalgesia, FIG. 2” value (shortened to “MPE (maximal possible effect) … FIG. 2”) in assay [4] (setting [6]) is “significantly different from vehicle”. The “effect on time spent licking” value in assay [1] (Example 6) and in assay [1] (Example 7) was “no clear effects” each time. For the same molecule, in assay [1] (Example 7, lacosamide 10 and 20 mg/kg i.p.), the “effect on number of flinches as compared with vehicle controls” value is given as “did not clearly affect”. Moreover, in assay [2] (lacosamide 30 mg/kg p.o.), the “tactile allodynia of iodoacetate-treated rats” value was “improved”. Also, in assay [3] (lacosamide 3 mg/kg p.o.), the “paw pressure withdrawal threshold compared to iodoacetate/vehicle treated animals” value is on record as “increase in paw pressure withdrawal threshold”. The mechanical hyperalgesia entry in assay [3] (lacosamide 10 mg/kg p.o., day 14) was “did not show a statistically significant effect”; in assay [3] (lacosamide at all doses tested (3, 10 and 30 mg/kg p.o.), day 7) it was “reduced mechanical hyperalgesia”. Further, the “mechanical hyperalgesia during the post-inflammatory period” value in assay [3] (lacosamide p.o.) is listed as “inhibited mechanical hyperalgesia”. Further, the “grip strength test indicative of mechanical allodynia” value in assay [5] (lacosamide 10 mg/kg i.p.) is “reversed the effect of TNF”. Further, in assay [5] (setting [6]), the “MPE (maximal possible effect) on biceps muscle grip strength, FIG. 4” value (from here on “MPE (maximal possible effect) … FIG. 4”) is reported as “significantly different from vehicle”. In assay [5] (setting [6]), the “reversal of TNF-induced reduction of grip strength” value is recorded as “significant reversal”.
For `CC12CC3CC(C)(C1)CC(N)(C3)C2` [Memantine], in assay [1] (Example 6, memantine 4 and 8 mg/kg i.p.), the “effect on number of flinches as compared with vehicle controls” value is “did not clearly affect”.
For `CC(C)C[C@H](CN)CC(=O)O` [pregabalin], in assay [4] (setting [7]), the “MPE (maximal possible effect) … FIG. 2” value is “significantly different from vehicle” and the “reversal of muscular mechanical hyperalgesia (withdrawal threshold to muscle pressure)” value is reported as “significant reversal”. The “full reversal of the muscle hyperalgesia” value in assay [4] (gabapentin 100 mg/kg i.p.) is reported as “Neither pregabalin nor gabapentin led to a full reversal”. In assay [5] (100 mg/kg i.p.), the “MPE (maximal possible effect) … FIG. 4” value was “significantly different from vehicle” and the “reversal of TNF-induced reduction of grip strength” value is reported as “significant reversal; also recorded: improved grip strength”.
Turning to `NCC1(CC(=O)O)CCCCC1` [Gabapentin], in assay [4] (gabapentin 100 mg/kg i.p.), the “MPE (maximal possible effect) … FIG. 2” value was “significantly different from vehicle”; the “reversal of muscular mechanical hyperalgesia (withdrawal threshold to muscle pressure)” value was “significant reversal”; the “full reversal of the muscle hyperalgesia” value is “Neither pregabalin nor gabapentin led to a full reversal”. Further, in assay [5] (100 mg/kg i.p.), the “MPE (maximal possible effect) … FIG. 4” value is “significantly different from vehicle” and the “reversal of TNF-induced reduction of grip strength” value is recorded as “significant reversal; also recorded: improved grip strength”.
As for `Cc1c(N(C)CS(=O)(=O)[O-])c(=O)n(-c2ccccc2)n1C.[Na+]` [metamizol], in assay [4] (metamizol 2 mg/kg i.p.), the “MPE (maximal possible effect) … FIG. 2” value is listed as “significantly different from vehicle” and the “reversal of muscular mechanical hyperalgesia (withdrawal threshold to muscle pressure)” value is listed as “complete reversal”. Moreover, in assay [5] (metamizol 2 mg/kg i.p.), the “MPE (maximal possible effect) … FIG. 4” value is reported as “significantly different from vehicle” and the “reversal of TNF-induced reduction of grip strength” value is listed as “significant reversal”.
